{"source": "patent US5434136A", "about": "“Treatment of motility disorders with a GNRH analog” (priority 1992, dated 1995)", "key": {"[1]": {"tested_on": "migrating motor complexes, jejunum", "experiment": "Leuprolide acetate effects on migrating motor complexes in rats", "assay_type": "in vivo, female Wistar rats", "conditions": "for Migrating Motor Complexes, L-Fasted / Migrating Motor Complexes, L-Fed: mean ± SEM", "description": "Eleven female Wistar rats weighing between 175 and 250 g were each implanted with four bipolar Ag/AgCL electrodes (the preparation of which is described in: Mathias, Am. J. Physiology, 249:[…]-[…], 1981). The electrodes were sewn 5 cm from the Ligament of Trietz and 5 cm apart, onto the jejunal serosa. The number of migrating myoelectric complexes was recorded using a R-612 Dynograph (Sensor-Medics, Anaheim, Calif.). Rats were fasted for 36 hours prior to recording and feeding (no food, liberal water), and were housed in special cages to remove feces. After 36 hours of fasting, Migrating Motor Complexes (MMC) were recorded at a sensitivity of 0.2 mV/cm, 2.5 mm/sec paper speed, and a Time Constant of 1 for a duration of 2 to 4 hours. Immediately following the fasted recording session, the rats were fed 2 biscuits of Purina rat chow with simultaneous recording during feeding and continued for 4 hours. This procedure was followed for 2 to 4 recording sessions prior to the treatment with leuprolide acetate (Controls). Leuprolide acetate was then administered daily, in the morning, subcutaneously in the hind limb at a dose ranging from 2 to 40 ug/100 g body weight. After a period of at least 24 hours post treatment with leuprolide, the fasting/fed recording sessions were begun as described for the controls to obtain recordings through 2 to 4 sessions."}, "[2]": {"tested_on": "functional bowel disease (GMD, IIHVN, Roux-en-Y Syndrome)", "experiment": "Treatment of five patients with leuprolide acetate: symptoms", "assay_type": "in vivo, human", "excerpt": "Patients: Four of the five patients tested were women with functional bowel disease: two with gastrointestinal motor dysfunction (GMD), and two with idiopathic intestinal hollow visceral myopathy/neuropathy (IIHVN). The fifth patient had Roux-en-Y Syndrome. All patients had severe, incapacitating symptoms of abdominal pain, nausea, and intermittent vomiting. All had made frequent visits to emergency rooms, had seen many physicians, and undergone multiple tests and surgical procedures, and were unable to maintain their jobs or quality of life. They had been treated with many different drugs, including experimental drugs by protocol. They had difficulty in maintaining body weight, because their symptoms were worsened by eating. The symptoms of the two patients with GMD were abdominal pain located in the right upper quadrant and epigastrium, daily nausea, and intermittent vomiting exacerbated by eating and by the luteal phase of the menstrual cycle. The two patients with IIHVN had abdominal pain, nausea, and intermittent vomiting, and also had urinary tract involvement consisting of pain and a decrease in urination. The fifth patient had Roux-en-Y syndrome (defined as epigastric-to-right-upper-quadrant pain, nausea, and vomiting increased by eating) after surgical construction of a gastro-jejunal Roux-en-Y anastomosis. The mean duration of these symptoms was eight years (Table 1). All subjects had undergone extensive blood testing, several upper gastrointestinal x-ray series, barium enemas, esophagogastroduodenoscopy, endoscopic retrograde cholangiopancreatography, gastric emptying tests with radiolabeled meal, ultrasound of the abdomen, computerized axial tomography of the abdomen, and many other tests. The results of all tests were normal, except for prolonged gastric emptying in the patient with the Roux-en-Y Syndrome. Because of their intractable clinical problem, these patients were included in the test protocol with leuprolide acetate. Protocol: The symptoms of each patient were first assessed, and their tests evaluated. Each patient kept a daily symptom diary. Leuprolide acetate was obtained by prescription as Lupron (TAP pharmaceuticals, Abbott Labs, North Chicago, Ill.). One multi-use vial of Lupron comprised of […] Leuprolide Acetate. A daily dose of 0.5 mg ([…]) was self-administered by subcutaneous injection, for a period of three months. Each patient was examined at 0, 1 and 3 months of treatment. After the third month, leuprolide was continued as previously, and estrogen (0.625 mg orally) and calcium (1000 mg orally) were also administered. At the end of the sixth month, a two week withdrawal period from leuprolide acetate ensued. During this period a 10 mg oral dose of progesterone was given to pre-menopausal patients, to assess recurrence of symptoms and to induce menses. Post-menopausal women were not treated with progesterone during the two week withdrawal period. This procedure was then continued for an additional six months, with drug withdrawal and progesterone given every three months to induce a menstrual cycle. Serum estradiol, progesterone, FSH, and LH were quantitated by radioimmunoassay prior to the initiation of leuprolide treatment, and at three months post treatment initiation."}, "[3]": {"conditions": "Patient 4 (IIHVN), 0.5 mg daily s.c."}, "[4]": {"conditions": "Patient 5 (Roux-en-Y), 0.5 mg daily s.c."}}}
{"smiles": "CCNC(=O)[C@@H]1CCCN1C(=O)[C@H](CCCNC(=N)N)NC(=O)[C@H](CC(C)C)NC(=O)[C@@H](CC(C)C)NC(=O)[C@H](Cc1ccc(O)cc1)NC(=O)[C@H](CO)NC(=O)[C@H](Cc1c[nH]c2ccccc12)NC(=O)[C@H](Cc1c[nH]cn1)NC(=O)[C@@H]1CCC(=O)N1", "note": "[Leuprolide acetate, leuprolide acetate]", "values": [{"measurement": "Migrating Motor Complexes, L-Fasted", "setting": "[1]; 2 μg/100 g body weight s.c. daily, control fasted 4.69 ± 0.24", "result": "4.60 ± 0.12", "unit": "MMC/hour"}, {"measurement": "Migrating Motor Complexes, L-Fed", "setting": "[1]; 2 μg/100 g body weight s.c. daily, control fed 2.60 ± 0.27", "result": "4.83 ± 0.65", "unit": "MMC/hour"}, {"measurement": "Migrating Motor Complexes, L-Fasted", "setting": "[1]; 20 μg/100 g body weight s.c. daily, control fasted 4.43 ± 0.25", "result": "5.41 ± 0.17", "unit": "MMC/hour"}, {"measurement": "Migrating Motor Complexes, L-Fed", "setting": "[1]; 20 μg/100 g body weight s.c. daily, control fed 1.40 ± 0.48", "result": "4.11 ± 0.22", "unit": "MMC/hour"}, {"measurement": "Migrating Motor Complexes, L-Fasted", "setting": "[1]; 40 μg/100 g body weight s.c. daily, control fasted 4.75 ± 0.48", "result": "4.48 ± 0.12", "unit": "MMC/hour"}, {"measurement": "Migrating Motor Complexes, L-Fed", "setting": "[1]; 40 μg/100 g body weight s.c. daily, control fed 2.33 ± 0.33", "result": "3.45 ± 0.25", "unit": "MMC/hour"}, {"measurement": "Dose at which the fed state was replaced by cycling MMCs (as little as)", "setting": "[1]; fed rats", "result": 2, "unit": "μg/100 g body weight"}, {"measurement": "Constipation: after leuprolide acetate", "setting": "[2]; Patient 1, 0.5 mg daily s.c.", "result": "Daily formed stools"}, {"measurement": "Intermittent vomiting: after leuprolide acetate", "setting": "[2]; Patient 1, 0.5 mg daily s.c.", "result": "Abolished"}, {"measurement": "Nausea, daily: after leuprolide acetate", "setting": "[2]; Patient 1, 0.5 mg daily s.c.", "result": "Decreased considerably"}, {"measurement": "Pain, RUQ, epigastrium, BLQ: after leuprolide acetate", "setting": "[2]; Patient 1, 0.5 mg daily s.c.", "result": "Abolished"}, {"measurement": "Constipation, intermittent: after leuprolide acetate", "setting": "[2]; Patient 2, 0.5 mg daily s.c.", "result": "Daily formed stools"}, {"measurement": "Epigastric to RUQ pain: after leuprolide acetate", "setting": "[2]; Patient 2, 0.5 mg daily s.c.", "result": "Abolished"}, {"measurement": "Nausea, daily: after leuprolide acetate", "setting": "[2]; Patient 2, 0.5 mg daily s.c.", "result": "Abolished"}, {"measurement": "Bilateral lower quadrant pain: after leuprolide acetate", "setting": "[2]; Patient 3 (IIHVN)", "result": "Abolished"}, {"measurement": "Bowel and bladder function after therapy", "setting": "[2]; Patient 3 (IIHVN)", "result": "normal bowel and bladder function"}, {"measurement": "Epigastric to RUQ pain: after leuprolide acetate", "setting": "[2]; Patient 3 (IIHVN)", "result": "Decreased considerably"}, {"measurement": "Nausea and vomiting after therapy", "setting": "[2]; Patient 3 (IIHVN)", "result": "subsided"}, {"measurement": "Nausea, daily: after leuprolide acetate", "setting": "[2]; Patient 3 (IIHVN)", "result": "Abolished"}, {"measurement": "Obstipation: after leuprolide acetate", "setting": "[2]; Patient 3 (IIHVN)", "result": "Daily formed stools"}, {"measurement": "Pain on urination: after leuprolide acetate", "setting": "[2]; Patient 3 (IIHVN)", "result": "Abolished"}, {"measurement": "Remaining abdominal pain under therapy", "setting": "[2]; Patient 3 (IIHVN)", "result": "mild and intermittent abdominal pain"}, {"measurement": "Overall response", "setting": "[2]; Patient 3 (IIHVN), total abdominal hysterectomy and bilateral salpingo-oophorectomy", "result": "responded dramatically"}, {"measurement": "Overall outcome", "setting": "[2]; Patient 4 (IIHVN)", "result": "symptom-free"}, {"measurement": "Constipation after ovulation: after leuprolide acetate", "setting": "[2]; [3]", "result": "Daily formed stools"}, {"measurement": "Deep boring pain in lower abdomen and rectum: after leuprolide acetate", "setting": "[2]; [3]", "result": "Abolished"}, {"measurement": "Urinary difficulty after ovulation: after leuprolide acetate", "setting": "[2]; [3]", "result": "normal urination"}, {"measurement": "Urination frequency after leuprolide acetate", "setting": "[2]; [3]", "result": "4 to 6", "unit": "day⁻¹"}, {"measurement": "Overall outcome", "setting": "[2]; Patient 5 (Roux-en-Y)", "result": "symptom-free"}, {"measurement": "Diarrhea: after leuprolide acetate", "setting": "[2]; [4]", "result": "Daily formed stools"}, {"measurement": "Epigastric to RUQ pain: after leuprolide acetate", "setting": "[2]; [4]", "result": "Abolished"}, {"measurement": "Intermittent vomiting: after leuprolide acetate", "setting": "[2]; [4]", "result": "Abolished"}, {"measurement": "Nausea, daily: after leuprolide acetate", "setting": "[2]; [4]", "result": "Abolished"}, {"measurement": "Worsened by eating: after leuprolide acetate", "setting": "[2]; [4]", "result": "Abolished"}, {"measurement": "Body weight gained", "setting": "[2]; Patient 5 (Roux-en-Y), from 96 to 131 pounds", "result": 35, "unit": "pounds"}, {"measurement": "Symptoms after leuprolide treatment was stopped and a progesterone challenge given", "setting": "[2]; all subjects of Example 1, two week withdrawal", "result": "recurrent symptoms within three to five days"}, {"measurement": "Debilitating symptoms of patients with Motility Disorders (conclusion of Example 1)", "setting": "[2]; human, in vivo", "result": "successfully reduces or abolishes"}, {"measurement": "Overall outcome after treatment", "setting": "[2]; patients with GMD (Patients 1 and 2)", "result": "symptom-free"}]}
